We go through 113 substances from patent US7781565B2 (priority 2006, dated 2010).

Entries after “also recorded” stand apart in the source; their conditions may differ.

The subject of the assay is NCI-60 cell lines. In kind it is cell-based, human.
Regarding CAGRARR, the “Cell Line (NCI-60 cell line the peptide is associated with)” value is “SNB-75 CNS”.

On to PRSSLVV, for which the “Cell Line with which the peptide (and its tripeptide motif) is associated” value (“Cell Line with which the peptide” below) was “H460-Lung”.

With GVRPFPR, the “Cell Line with which the peptide” value was “Hop-62-Lung”.

HTYGVRF: the “Cell Line the peptide is associated with (peptide recovered from phage library selection on this NCI-60 cell line)” value was “TK-10 Renal”.

Regarding PLAVGLV, the “Cell Line (NCI-60 cell line the peptide is associated with)” value is given as “HCT-116 Colon”.

With RGRLALL, the “Cell Line (NCI-60 cell line the peptide and its motif are associated with)” value is given as “M14 Melanoma”.

Consider GGRELKA, for which the “Cell Line (NCI-60 cell line the peptide and its motif are associated with)” value is given as “PC3 Prostate”.

Take GSSYSGP: the “Cell Line (NCI-60 cell line the peptide is associated with)” value is listed as “HCT-116 Colon”.

GRVVGEA: the “Cell Line with which the peptide” value was “H322-Lung”.

As for GRSSAGP, the “Cell Line the peptide is associated with (peptide recovered from phage library selection on this NCI-60 cell line)” value is reported as “MDA-MB-231 Breast”.

Regarding SGGLAVA, the “Cell Line (NCI-60 cell line the peptide and its motif are associated with)” value is listed as “UACC 257 Melanoma”.

As for GAVTGYP, the “Cell Line (NCI-60 cell line the peptide is associated with)” value was “SF-268 CNS”.

As to LRGGLVS, the “Cell Line with which the peptide” value is listed as “EKVX-Lung”.

As for LRYDLRS, the “Cell Line with which the peptide” value was “RPMI-8226-Leukemia”.

Regarding RLWGSVV, the “Cell Line (NCI-60 cell line the peptide and its motif are associated with)” value is “SK-OV-3-3 Ovarian”.

GSVVSSW: the “Cell Line the peptide is associated with (peptide recovered from phage library selection on this NCI-60 cell line)” value is given as “ACHN Renal”.

Take GLLSAGI: the “Cell Line (NCI-60 cell line the peptide is associated with)” value is “SF-268 CNS”.

Consider TTGSVIV, for which the “Cell Line with which the peptide” value is “H23-Lung”.

With GAGRGDR, the “Cell Line (NCI-60 cell line the peptide is associated with)” value is on record as “SF-295 CNS”.

For the substance FAGYGVL, the “Cell Line (NCI-60 cell line the peptide is associated with)” value is on record as “SNB-19 CNS; also recorded: SF-539 CNS”.

In the case of TSLLSFR, the “Cell Line with which the peptide” value is on record as “CCRF-CEM Leukemia”.

As for RGVSLKG, the “Cell Line with which the peptide” value was “H226-Lung”.

For GRWTGSS, the “Cell Line the peptide is associated with (peptide recovered from phage library selection on this NCI-60 cell line)” value is “MCF-7 Breast”.

As to AVSGRGW, the “Cell Line with which the peptide” value is listed as “Molt-4-Leukemia”.

Turning to FLLLSHR, the “Cell Line the peptide is associated with (peptide recovered from phage library selection on this NCI-60 cell line)” value was “SN12C Renal”.

Consider GGGSDGV, for which the “Cell Line with which the peptide” value was “CCRF-CEM Leukemia”.

Turning to AVDGLRL, the “Cell Line with which the peptide” value was “SR Leukemia”.

For MVYSGVS, the “Cell Line (NCI-60 cell line the peptide and its motif are associated with)” value was “M14 Melanoma”.

For LGLRAFV, the “Cell Line with which the peptide” value is on record as “H322-Lung”.

LGLVSTT: the “Cell Line (NCI-60 cell line the peptide is associated with)” value was “HT-29 Colon”.

GRAVWMV: the “Cell Line (NCI-60 cell line the peptide is associated with)” value was “KM-12C Colon”.

Regarding AKAGVSR, the “Cell Line the peptide is associated with (peptide recovered from phage library selection on this NCI-60 cell line)” value is given as “MCF-7 Breast”.

GGVSRMR: the “Cell Line the peptide is associated with (peptide recovered from phage library selection on this NCI-60 cell line)” value is on record as “CAIK-1 Renal”.

As to LPLLRGI, the “Cell Line with which the peptide” value is “HL-60-Leukemia”.

For RYGTAGS, the “Cell Line the peptide is associated with (peptide recovered from phage library selection on this NCI-60 cell line)” value was “SN12C Renal”.

As to SGSVVQR, the “Cell Line (NCI-60 cell line the peptide is associated with)” value is “LOX-IMVI Melanoma”.

In the case of LQGAGIH, the “Cell Line (NCI-60 cell line the peptide and its motif are associated with)” value is listed as “A498 Renal”.

As for DFTLGSS, the “Cell Line the peptide is associated with (peptide recovered from phage library selection on this NCI-60 cell line)” value is given as “MDA-MB-231 Breast”.

As to ARGRGSQ, the “Cell Line (NCI-60 cell line the peptide and its motif are associated with)” value is on record as “PC3 Prostate”.

AGGFRFI: the “Cell Line (NCI-60 cell line the peptide and its motif are associated with)” value was “SK-MEL-2 Melanoma”.

For the substance GRPLGGR, the “Cell Line (NCI-60 cell line the peptide is associated with)” value is recorded as “HCT-15 Colon”.

Turning to HGGSNDR, the “Cell Line the peptide is associated with (peptide recovered from phage library selection on this NCI-60 cell line)” value was “A498 Renal”.

For the substance ARRGVLG, the “Cell Line (NCI-60 cell line the peptide is associated with)” value is given as “COLO-205-Colon”.

For the substance LRGVYVA, the “Cell Line the peptide is associated with (peptide recovered from phage library selection on this NCI-60 cell line)” value is reported as “NCI/ADR-RES Breast”.

With PRGGRVA, the “Cell Line with which the peptide” value was “Hop-92-Lung”.

Take RGLVRVV: the “Cell Line (NCI-60 cell line the peptide is associated with)” value is recorded as “COLO-205-Colon”.

For the substance GWLNAAV, the “Cell Line (NCI-60 cell line the peptide and its motif are associated with)” value was “UACC 257 Melanoma”.

Take AGGRWNL: the “Cell Line (NCI-60 cell line the peptide is associated with)” value is “HT-29 Colon”.

As for LRGSYVL, the “Cell Line (NCI-60 cell line the peptide is associated with)” value is reported as “SW620-Colon”.

Take ANASGVR: the “Cell Line (NCI-60 cell line the peptide and its motif are associated with)” value is “M14 Melanoma”.

Consider GGRSWVN, for which the “Cell Line with which the peptide” value is given as “RPMI-8226-Leukemia”.

For the substance RGSYVER, the “Cell Line the peptide is associated with (peptide recovered from phage library selection on this NCI-60 cell line)” value is recorded as “BT-549 Breast”.

In the case of RRGSSRN, the “Cell Line with which the peptide” value is reported as “SR Leukemia”.

For VYYALRS, the “Cell Line (NCI-60 cell line the peptide is associated with)” value is on record as “KM-12C Colon”.

For the substance DWVGVLM, the “Cell Line (NCI-60 cell line the peptide and its motif are associated with)” value is listed as “UACC62 Melanoma”.

In the case of VGPSVHL, the “Cell Line (NCI-60 cell line the peptide and its motif are associated with)” value is reported as 786-0 Renal.

Turning to PFPARSS, the “Cell Line with which the peptide” value was “H23-Lung”.

As for LRGSHVA, the “Cell Line the peptide is associated with (peptide recovered from phage library selection on this NCI-60 cell line)” value is “ACHN Renal”.

GVRWNWS: the “Cell Line the peptide is associated with (peptide recovered from phage library selection on this NCI-60 cell line)” value is “RXF393 Renal”.

With GLGIMGP, the “Cell Line with which the peptide” value is reported as “K-562-Leukemia”.

In the case of GRRVSLV, the “Cell Line with which the peptide” value was “SR Leukemia”.

As to CGEGLVV, the “Cell Line (NCI-60 cell line the peptide and its motif are associated with)” value is reported as “DU-145 Prostate”.

As for GDRGVRG, the “Cell Line (NCI-60 cell line the peptide and its motif are associated with)” value is given as “A498 Renal”; the “Cell Line the peptide is associated with (peptide recovered from phage library selection on this NCI-60 cell line)” value was “A498 Renal”.

Take MRGSGRN: the “Cell Line (NCI-60 cell line the peptide is associated with)” value was “KM-12C Colon”.

For the substance EGGRTHW, the “Cell Line (NCI-60 cell line the peptide is associated with)” value was “HT-29 Colon”.

In the case of NELRVCR, the “Cell Line the peptide is associated with (peptide recovered from phage library selection on this NCI-60 cell line)” value was “SN12C Renal”.

For RIGAGHR, the “Cell Line (NCI-60 cell line the peptide and its motif are associated with)” value was “PC3 Prostate”.

Consider CHARGVT, for which the “Cell Line with which the peptide” value is listed as “Molt-4-Leukemia”.

Consider TAAAVLL, for which the “Cell Line (NCI-60 cell line the peptide and its motif are associated with)” value is reported as “OVCAR-5 Ovarian”.

With LSLAGAG, the “Cell Line (NCI-60 cell line the peptide is associated with)” value was “HT-29 Colon”.

For RVARGDR, the “Cell Line (NCI-60 cell line the peptide is associated with)” value was “KM-12C Colon”.

Take VSRIGVR: the “Cell Line (NCI-60 cell line the peptide is associated with)” value is reported as “LOX-IMVI Melanoma”.

Regarding DVPGVRF, the “Cell Line with which the peptide” value is “EKVX-Lung”.

Take GAVTSAD: the “Cell Line (NCI-60 cell line the peptide and its motif are associated with)” value is reported as “SK-MEL-2 Melanoma”.

In the case of RASYYGV, the “Cell Line the peptide is associated with (peptide recovered from phage library selection on this NCI-60 cell line)” value is given as “RXF393 Renal”.

DENRAGL: the “Cell Line (NCI-60 cell line the peptide and its motif are associated with)” value is “DU-145 Prostate”.

For the substance RVGRGVL, the “Cell Line (NCI-60 cell line the peptide is associated with)” value is recorded as “SF-268 CNS”.

Consider SGVRPVI, for which the “Cell Line (NCI-60 cell line the peptide and its motif are associated with)” value was “SK-MEL-2 Melanoma”.

LGAGMIA: the “Cell Line (NCI-60 cell line the peptide and its motif are associated with)” value is reported as “OVCAR-8 Ovarian”.

As to DVVGVLK, the “Cell Line (NCI-60 cell line the peptide is associated with)” value is reported as “SF-268 CNS”.

For the substance RVEAAVP, the “Cell Line (NCI-60 cell line the peptide and its motif are associated with)” value is “SK-OV-3-3 Ovarian”.

On to AGSAFWA, for which the “Cell Line (NCI-60 cell line the peptide and its motif are associated with)” value is recorded as 786-0 Renal.

Consider RGGSPPV, for which the “Cell Line the peptide is associated with (peptide recovered from phage library selection on this NCI-60 cell line)” value was “RXF393 Renal”.

Take VARSSFR: the “Cell Line (NCI-60 cell line the peptide and its motif are associated with)” value is recorded as “IGROV1 Ovarian”.

On to GGSTVPQ, for which the “Cell Line (NCI-60 cell line the peptide and its motif are associated with)” value was “OVCAR-8 Ovarian”.

For the substance CGARGAA, the “Cell Line with which the peptide” value is “H322-Lung”.

Take GAVSVLA: the “Cell Line (NCI-60 cell line the peptide is associated with)” value was “SF-295 CNS”.

As to WTKRGSV, the “Cell Line with which the peptide” value was “K-562-Leukemia”.

With GLVGRRA, the “Cell Line (NCI-60 cell line the peptide is associated with)” value is “COLO-205-Colon”.

LRVSRGL: the “Cell Line the peptide is associated with (peptide recovered from phage library selection on this NCI-60 cell line)” value is on record as “TK-10 Renal”.

For the substance PLLRQQL, the “Cell Line the peptide is associated with (peptide recovered from phage library selection on this NCI-60 cell line)” value is “ACHN Renal”.

YWQHRVS: the “Cell Line (NCI-60 cell line the peptide is associated with)” value was “HCT-116 Colon”.

Regarding SKAVLRS, the “Cell Line (NCI-60 cell line the peptide and its motif are associated with)” value is “SK-MEL-2 Melanoma”.

For NKGGLRQ, the “Cell Line (NCI-60 cell line the peptide and its motif are associated with)” value is “SK-OV-3-3 Ovarian”.

Consider LGVRASP, for which the “Cell Line the peptide is associated with (peptide recovered from phage library selection on this NCI-60 cell line)” value was “BT-549 Breast”.

For LRSGRGS, the “Cell Line the peptide is associated with (peptide recovered from phage library selection on this NCI-60 cell line)” value is “MDA-MB-435-Breast” and the “Cell Line with which the peptide” value is listed as “RPMI-8226-Leukemia”.

FTLRVDK: the “Cell Line with which the peptide” value is on record as “K-562-Leukemia”.

Take GPSVLDI: the “Cell Line (NCI-60 cell line the peptide and its motif are associated with)” value is on record as “OVCAR-8 Ovarian”.

As for HLRGRGV, the “Cell Line with which the peptide” value is reported as “EKVX-Lung”.

In the case of WVGSGSP, the “Cell Line with which the peptide” value is “Hop-92-Lung”.

Turning to GVRYLRT, the “Cell Line (NCI-60 cell line the peptide is associated with)” value is listed as “HCT-116 Colon”.

In the case of ARHGSSV, the “Cell Line (NCI-60 cell line the peptide and its motif are associated with)” value is listed as “M14 Melanoma”.

WGSSAVK: the “Cell Line (NCI-60 cell line the peptide and its motif are associated with)” value is listed as “IGROV1 Ovarian”.

With SPGVSGR, the “Cell Line (NCI-60 cell line the peptide is associated with)” value is “SW620-Colon”.

For DGGRRSS, the “Cell Line with which the peptide” value is on record as “EKVX-Lung”.

Regarding WRVRSSG, the “Cell Line (NCI-60 cell line the peptide is associated with)” value was “HCT-15 Colon”.

SVHLVSG: the “Cell Line the peptide is associated with (peptide recovered from phage library selection on this NCI-60 cell line)” value is given as “HS 578 T Breast”.

Turning to WSATGVS, the “Cell Line the peptide is associated with (peptide recovered from phage library selection on this NCI-60 cell line)” value is given as “HS 578 T Breast”.

For IGAASWF, the “Cell Line the peptide is associated with (peptide recovered from phage library selection on this NCI-60 cell line)” value is on record as “MCF-7 Breast”.

For HAELVSL, the “Cell Line (NCI-60 cell line the peptide is associated with)” value was “KM-12C Colon”.

With LAGLVSG, the “Cell Line (NCI-60 cell line the peptide is associated with)” value is on record as “HT-29 Colon”.

For IYPGAVL, the “Cell Line (NCI-60 cell line the peptide and its motif are associated with)” value is recorded as “OVCAR-5 Ovarian”.

WGSSTVR: the “Cell Line with which the peptide” value is reported as “H322-Lung”.
